Laboratory results from patent US20220119399A1, “COMPOUNDS AND COMPOSITIONS THAT CAUSE MYCN AND/OR CMYC DEGRADATION AND METHODS OF USE THEREOF” (THE TRUSTEES OF COLUMBIA UNIVERSITY IN THE CITY OF NEW YORK, priority 2018, published 2022).
“Also recorded” adds a separate entry of the source.

How the values were obtained:
[1] = test system: MycN^AMP regulatory module (Master Regulators, TCM); assay: PLATE-Seq with VIPER analysis: reversion of the MycN^AMP master regulator module; assay type: cell-based, human; conditions: SK-N-Be2 cells, IC20, 24 hrs
Text: Reads were mapped against the human reference genome version Grch38 using the STAR aligner, and used the variance stabilizing transformation from the DESeq2 package for R to normalize each plate. Next, we corrected for batch effect due to having compounds replicates on separate plates. We used the function combat from the sva package for R to compute the batch-corrected normalized gene expression, and fitted a linear model for each compound against the set of DMSO controls on each plate (6 wells per plate per DMSO-treated cells). We used the limma package for R to fit the linear model and to compute p-values and moderated t-statistics for each gene. For each compound, we used a vector of these statistics to generate a gene expression profile of z-scores representing the compound effect as differential between post- and pre-treatment.
Each compound gene expression profile was analyzed using the VIPER algorithm (Alvarez et al. 2016) with TARGET and NRC NBL interactomes, reverse-engineered as described in (Rajbhandari et al. 2018), resulting in two protein activity profiles for each compound that were integrated using Stouffer's z-score method.

pS6K = assay: S6K phosphorylation western blot in SK-N-Be2 cells; assay type: cell-based, human; conditions: 10 μM and 20 μM, 24 hours
Text: Membranes were blocked using Odyssey Blocking Buffer (LI-COR) for 1 hr at room temperature. […] Primary antibodies used in these studies include: MycN (CST; 1:500 dilution), Actin (SCBT; 1:2000 dil.), cMYC (CST; 1:500 dil.), pAKT (S473; CST; 1:500 dil.), AKT (CST; 1:2000), pP70 (T389; CST; 1:1000) P70 (CST; 1:1000).
We then tested whether mTORC2 complex was disrupted by isopomiferin treatment. […] to enable translation. We tested whether phosphorylation of S6K was inhibited by isopomiferin by treating SK-N-Be2 cells to 10 μM and 20 μM isopomiferin for 24 hours and blotting for pS6K, using total S6K protein as a loading control. […] We then tested whether this was consistent across cell lines by performing a similar experiment in an NSCLC cell line, A549.

CCL5 transcript = assay: qPCR of CCL5 transcript in A549 cells; assay type: cell-based; conditions: 48 hr
Experimental: Reverse transcription quantitative polymerase chain reaction (RT-qPCR) was used to quantify transcript abundance of genes of interest. Total RNA was isolated from cells using the Qiaquick RNeasy isolation kit following manufacturer's instruction (QIAGEN). RNA quality and abundance was measured using a nanodrop spectrophotometer. A total of 2 μg RNA was used as a template for reverse transcription reactions. cDNA synthesis was performed using TaqMan reverse transcriptase following the manufacturer's instructions, using both oligod(T) and random hexamers as primers for RT reactions. RNAse treatment of cDNA removed any residual RNA in cDNA samples. cDNA samples were diluted 10-fold into nuclease-free dH2O, and used as the template for quantitative PCR reactions were performed in a Viia7 […] thermocycler using SYBR green and gene-specific primers (Table 1). qPCR reactions were performed using the Viia7 Real-Time PCR system (Applied Biosystems), and relative transcript abundance evaluated using the deltaCT method, using the GAPDH housekeeping gene as normalization control.
In lung cancer, cMyc overexpression suppresses CCL5, an antigen that enables the immune system to detect cancer cells (Topper et al. 2017). By suppressing CCL5, cMyc enables tumors to evade immune surveillance (Topper et al. 2017). […]

mTOR = mTOR (Homo sapiens, UniProt P42345); assay: Cell-free biochemical mTOR kinase assay
Experimental: Cell-free biochemical kinase assays were performed at Reaction Biology Corporation (Malvern, Pa.). In brief, kinase substrates were diluted into reaction buffer containing 20 mM Hepes (pH 7.5), 10 mM MgCl2, 1 mM EGTA, 0.02% Brij35, 0.02 mg/ml BSA, 0.1 mM Na3VO4, 2 mM DTT, 1% DMSO. Purified protein (CK2a1, CK2a2, or mTOR) was added to the substrate solution and gently mixed. Test compounds were diluted from 10 mM DMSO stock solutions into the reaction buffer using an Echo550 acoustic dispenser, followed by incubation at RT for 20 min. 33P-ATP (10 μCi/μL) was added to reaction mixture, following incubation for 2 h at RT. Reactions were then spotted onto P81 ion exchange paper and kinase activity was detected by filter binding method.

[2] = Stability in mouse plasma; assay type: in vitro ADME; conditions: 4 h incubation, 20 μM
Experimental: Mouse plasma was diluted with 100 mM PBS buffer at 7.4 pH and at a 1:1 ratio, and warmed to 37° C. Test compounds were added to the plasma solution at 20 μM and incubated for the indicated time point. Reactions was quenched by aliquoting 15 μL of solution into 60 μL ice-cold acetonitrile containing an internal standard. Compounds were quantified by LC-MS, as detailed above.

SK-N-Be2 cells = assay type: in vitro ADME, human; conditions: human, 20 μM
Experimental: In brief, SK-N-Be2 cells were seeded at 400 k cells/well in 6 w plates and incubated overnight. The following day, compounds were added to wells at indicated concentrations, with DMSO-only control added to non-treated wells. Following treatment for the indicated time periods, cells were trypsinized, rinsed twice with cold PBS to remove media, pelleted by centrifugation, and frozen at −20° C. To extract compounds, frozen pellets were resuspended in 150 μL of acetonitrile, sonicated for 2′, and centrifuged at 1400×g for 75′ at 4° C. Supernatant was collected and analyzed by LC-MS using a system comprised of a Thermo Scientific Dionex Ultimate 3000 and a Bruker amaZon SL equipped with an electrospray ionization source controlled by a Bruker Hystar 3.2. Compounds were separated by injecting 20 μL of supernatant onto an Agilent Eclipse Plus C18 column (2.1×50 mm, […]) maintained at 20° C., with the flow rate set at 400 μL/min. Initial flow conditions were 60% solvent A (MilliQ H2O, 0.1% acetic acid), and 40% solvent B (HPLC-grade MeOH, 0.1% acetic acid). Solvent B was raised to 60% over 0.25 min and to 70% by 6.75 min. Solvent B was raised to 95% by 7 min and lowered back to 40% by 8 minutes; total run time was 9 min (Bos et al. 2019).

[3] = test system: cancer cell lines and non-transformed cells; conditions: Darji et al. 2013; Son et al. 2007; cited from earlier work

Compound	reversion of the MR regulatory module / TCM (VIPER of PLATE-Seq) [1]	phosphorylation of S6K (P70^S6K) (pS6K)	phosphorylation of S6K (P70^S6K) (pS6K; listed as Isopomiferin)	increase of CCL5 transcript (CCL5 transcript)	mTOR kinase activity (mTOR)	compound remaining in mouse plasma [2]	amount of compound detected in cell sample (SK-N-Be2 cells)	potency in transformed cells relative to non-transformed cells [3]
CC1(C)C=Cc2c(c3c(c4c(=O)c(-c5ccc(O)c(O)c5)coc24)OC(C)(C)CC3)O1 [isopomiferin]	the top compound of the 90 tested; also recorded: had the strongest effect on the TCM	completely inhibited phosphorylation of S6K protein	inhibited phosphorylation of P70^S6K	15 fold	did not directly inhibit mTOR kinase activity	–	–	–
CC(C)=CCc1c2c(c3occ(-c4ccc(O)c(O)c4)c(=O)c3c1O)C=CC(C)(C)O2 [pomiferin]	–	–	–	–	–	approximately 75%	~300 ng	> 10 fold
